The text below walks through data of patent publication US4385055A, “2-Acetyl-and 2-propionylpyridine thiosemicarbazones as antimalarials” (The United States of America as represented by the …, priority 1981, dated 1983).

≈ marks a conversion by molar mass, not a printed value. Read-outs that look alike come from different tables or passages of the source.

The subject of one assay is Staphylococcus aureus. The assay can be described thus: Macro broth dilution MIC, Staphylococcus aureus isolates (Test 1). As to conditions: 24 h, read after 24 hours, read-out: Minimum Inhibitory Concentration. The assay is classed as cell-based. On the procedure: (§1) Compounds were tested against five isolates of Staphylococcus aureus and five isolates of Group D Enterococcus. The bacteria used were isolated from patients at the Walter Reed Army Medical Center, Washington, D.C. The test procedure used was the macro broth dilution method in duplicate as outlined by J. C. Sherris on pages 414-415 in "Manual of Clinical Microbiology," 2nd ed., E. Lennette, E. H. Spaulding, and J. P. Truant, Ed. (American Society for Microbiology, Washington, D.C., 1974). Each compound was dissolved in DMSO (12.8 mg/mL) and then diluted with Mueller-Hinton broth to obtain the desired dilutions. Tubes containing the highest quantities of DMSO with no compound present were run as controls.
On the technique in general: Broth dilution looks for growth in wells or tubes with falling amounts of substance.

In assay [1] the test system is Plasmodium berghei KBG 173. The assay can be described thus: In vivo antimalarial activity in mice (Test 5). As to conditions: for ED50: Plasmodium berghei, computed estimate of the dose required to cure 50% of the mice; for In vivo Antimalarial Activity: mice, C = Cure (cured/treated mice). Details: key to In vivo Antimalarial Activity: C: Mice surviving 60 days are considered cured; Active: Activity is defined as a 100% increase in the mean survival time of the treated mice compared to the control group; Toxicity is defined as a decrease in the mean survival time of the treated mice as compared to the control group. On the procedure: Compounds were tested against Plasmodium berghei KBG 173 malaria in mice following the procedure described by T. S. Osdene, P. B. Russell, and L. Rane [J. Med. Chem. 10:431-434 (1967)]. Five mice were tested at each dosage level. Mice surviving 60 days are considered cured. Toxicity is defined as a decrease in the mean survival time of the treated mice as compared to the control group. Activity is defined as a 100% increase in the mean survival time of the treated mice compared to the control group.

The subject of the next assay is Neisseria meningitidis. The assay can be described thus: Macro broth dilution MIC, Neisseria meningitidis isolates (Test 2). As to conditions: Neisseria meningitidis, 24 h, read after 24 hours, read-out: Minimum Inhibitory Concentration. It counts as cell-based. On the procedure:
Compounds were tested against five isolates of Neisseria meningitidis. The bacterial isolates were provided by the Department of Bacterial Diseases of the Walter Reed Army Institute of Research. The test procedure used was the macro broth dilution method in duplicate outlined by J. C. Sherris on pages 414-415 (loc. cit.). The test compounds and controls were prepared as in Test 1 above. Ampicillin and penicillin standards were initially diluted as described by J. C. Sherris on pages 411-412 (loc. cit.) followed by dilution with Mueller-Hinton broth. The tubes were incubated at 37° C. under 5-10% carbon dioxide.

A further assay has as its system Neisseria gonorrhoeae. The assay can be described thus: Agar dilution MIC, Neisseria gonorrhoeae isolates (Test 3). The assay is classed as cell-based. The note with it: 24 h, read-out: Minimum Inhibitory Concentration. On the procedure:
Compounds were tested against six Neisseria gonorrhoeae isolates. The bacteria used were provided by the Department of Bacterial Diseases of the Walter Reed Army Institute of Research. The test procedure used was the agar dilution method in duplicate as outlined by J. C. Sherris on pages 411-412 (loc. cit.). GC Medium (Difco) with a 2% defined supplement added as described by D. S. Kellogg et al. [J. Bact. 85:1274-1279 (1963)] was used as the media. The compounds were dissolved in DMSO (1.0 mg/mL), diluted with GC broth (GC Medium without agar) to the appropriate concentration, and added to the GC Medium at 55°-56° C. The latter was then poured and allowed to solidify. A penicillin standard was also prepared with initial dilutions as described by J. C. Sherris followed by dilutions with GC broth and addition to the GC Medium at 55°-56° C. as above. The inoculum was 1:200 GC broth dilution of a suspension of colony isolates after the suspension was adjusted visually to the turbidity standard described by J. M. Matsen and A. L. Barr on page 422 in "Manual of Clinical Microbiology," 2nd ed., E. Lennette, E. H. Spaulding, and J. P. Truant, Ed. (American Society for Microbiology, Washington, D.C., 1974). The plates were inoculated with a replicator and incubated at 37° C. under 5-10% carbon dioxide.
On the technique in general: In agar dilution the substance is mixed into plates at graded concentrations.

Another assay concerns Group D Enterococcus. The assay can be described thus: Macro broth dilution MIC, Group D Enterococcus isolates (Test 1). It counts as cell-based. The note with it: 24 h, read after 24 hours, read-out: Minimum Inhibitory Concentration. On the procedure: as §1
Assay [2] deals with Mycobacterium intracellulare. The assay can be described thus: Broth dilution MIC, Mycobacterium intracellulare strains (Test 6). The assay is classed as cell-based. As to conditions: read-out: Minimum Inhibitory Concentration.
Where [3] appears, read: Staphylococcus aureus isolate I.
Setting [4] is: Staphylococcus aureus isolate II.
Where [5] appears, read: Staphylococcus aureus isolate III.
The mark [6] stands for this setting: Staphylococcus aureus isolate IV.
Where [7] appears, read: Staphylococcus aureus isolate V.
Where [8] appears, read: Neisseria meningitidis isolate 7957.
Where [9] appears, read: Neisseria meningitidis isolate 7990.
[10] abbreviates: Neisseria meningitidis isolate 8005.
[11] abbreviates: Neisseria meningitidis isolate 8006.
Setting [12] is: Neisseria meningitidis isolate 8011.

As a reminder, the ED50 is the dose at which the effect has come halfway, by size or by number of responders. `CC(=NNC(=S)N1CCCCC1C)c1ccccn1` (stereo not drawn) [B, 2-Methylpiperidine-1-thiocarboxylic acid 2-[1-(2-pyridyl)ethylidene]hydrazide]: the MIC in the assay on Staphylococcus aureus (setting [3]) amounted to 1 µg/mL (≈ 3.62 µM); in the assay on Staphylococcus aureus (setting [4]) it was 1 µg/mL (≈ 3.62 µM); with Staphylococcus aureus (setting [5]) it was 1 µg/mL (≈ 3.62 µM); in the assay on Staphylococcus aureus (setting [6]), 1 µg/mL (≈ 3.62 µM); with Staphylococcus aureus (setting [7]) it was 1 µg/mL (≈ 3.62 µM); in the assay with Neisseria meningitidis (setting [8]), 0.062 µg/mL (≈ 0.224 µM). Besides, the MIC amounted to 0.062 µg/mL (≈ 0.224 µM) with Neisseria meningitidis (setting [9]), 0.125 µg/mL (≈ 0.452 µM) in the assay with Neisseria meningitidis (setting [10]), 0.062 µg/mL (≈ 0.224 µM) in the assay with Neisseria meningitidis (setting [11]) and 0.5 µg/mL (≈ 1.81 µM) in the assay on Neisseria meningitidis (setting [12]). Further, the ED50 in assay [1] is 57 mg/kg. Also, the “In vivo Antimalarial Activity” value is on record as “Active” in assay [1] (Dosage Level 160 mg/kg), “Toxic” in assay [1] (Dosage Level 320 mg/kg) and “Toxic” in assay [1] (Dosage Level 640 mg/kg).

`CC(=NNC(=S)N1CC2CCC(CC2)C1)c1ccccn1` [L, 3-Azabicyclo[3.2.2]nonane-3-thiocarboxylic acid 2-[1-(2-pyridyl)ethylidene]hydrazide]: the MIC stood at 1 µg/mL (≈ 3.31 µM) in the assay with Staphylococcus aureus (setting [3]); 1 µg/mL (≈ 3.31 µM) in the assay on Staphylococcus aureus (setting [4]); 1 µg/mL (≈ 3.31 µM) in the assay with Staphylococcus aureus (setting [5]); 1 µg/mL (≈ 3.31 µM) in the assay on Staphylococcus aureus (setting [6]); 1 µg/mL (≈ 3.31 µM) in the assay on Staphylococcus aureus (setting [7]); 0.031 µg/mL (≈ 0.102 µM) with Neisseria gonorrhoeae (Neisseria gonorrhoeae isolate 135, read after 24 hours). Further, the MIC was 0.016 µg/mL (≈ 0.0529 µM) in the assay on Neisseria gonorrhoeae (Neisseria gonorrhoeae isolate 161, read after 24 hours); 0.031 µg/mL (≈ 0.102 µM) with Neisseria gonorrhoeae (Neisseria gonorrhoeae isolate 278, read after 24 hours); 0.031 µg/mL (≈ 0.102 µM) in the assay on Neisseria gonorrhoeae (Neisseria gonorrhoeae isolate 455, read after 24 hours); 0.031 µg/mL (≈ 0.102 µM) with Neisseria gonorrhoeae (Neisseria gonorrhoeae isolate 456, read after 24 hours); 0.031 µg/mL (≈ 0.102 µM) in the assay on Neisseria gonorrhoeae (Neisseria gonorrhoeae isolate 602, read after 24 hours); 2 µg/mL (≈ 6.61 µM) in the assay with Group D Enterococcus (Group D Enterococcus isolate I). The MIC with Group D Enterococcus (Group D Enterococcus isolate II) was found to be 2 µg/mL (≈ 6.61 µM); with Group D Enterococcus (Group D Enterococcus isolate III), 2 µg/mL (≈ 6.61 µM); in the assay with Group D Enterococcus (Group D Enterococcus isolate IV) it was 2 µg/mL (≈ 6.61 µM); in the assay with Group D Enterococcus (Group D Enterococcus isolate V), 2 µg/mL (≈ 6.61 µM); in assay [2] (Mycobacterium intracellulare strain I), 10 µg/mL (≈ 33.1 µM); in assay [2] (Mycobacterium intracellulare strain II) it was 1 µg/mL (≈ 3.31 µM). Moreover, the MIC in assay [2] (Mycobacterium intracellulare strain III) was found to be 1 µg/mL (≈ 3.31 µM); in assay [2] (Mycobacterium intracellulare strain IV), 0.1 µg/mL (≈ 0.331 µM); in assay [2] (Mycobacterium intracellulare strain V), 0.1 µg/mL (≈ 0.331 µM); in assay [2] (Mycobacterium intracellulare strain VI) it was 0.1 µg/mL (≈ 0.331 µM); with Neisseria meningitidis (setting [8]), 0.031 µg/mL (≈ 0.102 µM); with Neisseria meningitidis (setting [9]) it was 0.062 µg/mL (≈ 0.205 µM). Further, the MIC in the assay on Neisseria meningitidis (setting [10]) was below 0.031 µg/mL; in the assay on Neisseria meningitidis (setting [11]) it was 0.062 µg/mL (≈ 0.205 µM); with Neisseria meningitidis (setting [12]) it was 0.125 µg/mL (≈ 0.413 µM). Further, in assay [1], the ED50 is 59 mg/kg.
